Earlier results, collected in patent publication US11612614B2, “Isomorphs of Remdesivir and methods for synthesis of same” (Anzalp Pharmasolutions Pvt. Ltd., priority 2020, dated 2023).
“Also recorded” adds a separate entry of the source.

Columns and labels:
[1] = not given; remark: listed apart in the source

For `CCC(CC)COC(=O)[C@H](C)N[P@](=O)(OC[C@H]1O[C@@](C#N)(c2ccc3c(N)ncnn23)[C@H](O)[C@@H]1O)Oc1ccccc1` [Remdesivir, 2-ethylbutyl (2S)-2-[[[(2R,3S,4R,5R)-5-(4-aminopyrrolo[2,1-f][1,2,4]triazin-7-yl)-5-cyano-3,4-dihydroxyoxolan-2-yl]methoxy-phenoxyphosphoryl]amino]propanoate], the solubility in ethanol (ethanol) is given as “soluble”, the solubility in water (water) is given as “practically insoluble; also recorded: relatively insoluble” and the “chemical stability in aqueous media” value [1] is given as “chemically unstable”.
